This note sets out measurements from PubChem BioAssay (NCI).

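Dose response: 5 concentrations. Exposure: 48 h. Format: 96-well plates. Endpoint: linear interpolation; highest concentration if not reached. TGI denotes the concentration required for complete inhibition of growth.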 Bounds are passed on as bounds.

Some test systems named below: CAKI-1 renal; HCC-2998 colon; HCT-116 colon; M14 melanoma; MALME-3M melanoma; MCF7 breast; MDA-MB-231 breast; MDA-N; MOLT-4 leukemia; NCI-H23 lung; NCI-H460 lung; NCI-H522 lung; OVCAR-3 ovarian; OVCAR-5 ovarian; PC-3 prostate; SF-539 CNS; SNB-19 CNS; SR leukemia; T-47D breast; UACC-62 melanoma.
Common to all, as to assay: inhibition of tumour cell growth, NCI panel, 48 h

As to `CSCCC(N)P(C)(=O)O` (stereo not given), the TGI in the test with CAKI-1 renal, in the test on HCC-2998 colon, in the test with HCT-116 colon, with M14 melanoma, in the test on MALME-3M melanoma and in the test with MCF7 breast was over 100 µM each time. Also, the TGI in the test on MDA-MB-231 breast, in the test with MDA-N, with MOLT-4 leukemia, in the test on NCI-H23 lung, in the test on NCI-H460 lung and in the test with NCI-H522 lung was over 100 µM each time. Further, the TGI in the test on OVCAR-3 ovarian, in the test with OVCAR-5 ovarian, with PC-3 prostate, in the test with SF-539 CNS, in the test with SNB-19 CNS and in the test on SR leukemia was over 100 µM each time. The TGI in the test on T-47D breast and in the test with UACC-62 melanoma was over 100 µM throughout.

On to `O=C1c2ccccc2C(=O)c2c1ccc1nc3c(nc21)-c1c2ccccc2cc2cccc-3c12`, for which the TGI with CAKI-1 renal is over 100 µM; in the test with HCC-2998 colon, over 100 µM; in the test with HCT-116 colon, over 100 µM; with M14 melanoma it was over 100 µM; with MALME-3M melanoma, over 100 µM; in the test on MCF7 breast it was over 91.5 µM. Moreover, the TGI in the test with MDA-MB-231 breast, in the test with MDA-N, in the test on MOLT-4 leukemia, in the test with NCI-H23 lung, in the test with NCI-H460 lung and in the test on NCI-H522 lung was over 100 µM throughout. The TGI in the test with OVCAR-3 ovarian, in the test with OVCAR-5 ovarian, in the test with PC-3 prostate, in the test on SF-539 CNS, in the test with SNB-19 CNS and in the test with SR leukemia was over 100 µM throughout. Moreover, the figures for the TGI with T-47D breast and with UACC-62 melanoma were over 84.2 µM and over 86.2 µM, respectively.

As to `COc1cc(/C=C/C(=O)OCCc2ccccc2)ccc1O`, the TGI came to 29.7 µM in the test on CAKI-1 renal; 41.3 µM with HCC-2998 colon; 31.6 µM in the test with HCT-116 colon; 29 µM with M14 melanoma; 31.7 µM in the test with MALME-3M melanoma; 44.8 µM with MCF7 breast. Further, the TGI in the test with MDA-MB-231 breast was 30.6 µM; with MDA-N, 34.4 µM; with MOLT-4 leukemia it was 37.9 µM; in the test with NCI-H23 lung it was 36.5 µM; in the test on NCI-H460 lung it was 37.1 µM; in the test on NCI-H522 lung, 22.1 µM. Moreover, the TGI in the test with OVCAR-3 ovarian came to 36.9 µM; in the test with OVCAR-5 ovarian, 32.8 µM; in the test with PC-3 prostate, 28 µM; in the test with SF-539 CNS it was 36.7 µM; in the test on SNB-19 CNS it was 33.9 µM; in the test with SR leukemia, 83.5 µM. The TGI is 33.2 µM with T-47D breast and 26 µM with UACC-62 melanoma.

As to `COc1cc(C=C2N=C(c3ccccc3)N(n3c(-c4ccccc4)nc4ccccc4c3=O)C2=O)cc(OC)c1OC`, the TGI was over 100 µM in the test on CAKI-1 renal; 89.6 µM with HCC-2998 colon; 48.3 µM in the test on HCT-116 colon; 75.7 µM in the test with M14 melanoma; 38.6 µM with MALME-3M melanoma; 60.7 µM with MCF7 breast. Moreover, the TGI with MDA-MB-231 breast was 53.1 µM; in the test on MDA-N, 92.6 µM; with MOLT-4 leukemia it was over 100 µM; with NCI-H23 lung it was 56.6 µM; in the test with NCI-H460 lung it was 47.2 µM; in the test on NCI-H522 lung, 39.7 µM. Also, the TGI in the test with OVCAR-3 ovarian is 54 µM; in the test on OVCAR-5 ovarian it was over 100 µM; with PC-3 prostate, over 100 µM; with SF-539 CNS, 45.3 µM; with SNB-19 CNS, 72.3 µM; in the test with SR leukemia, over 100 µM. In addition, the TGI with T-47D breast came to 50.2 µM; in the test with UACC-62 melanoma, 51 µM.

`O=C(O)c1ccccc1CC1Cc2ccc3c(c2C1=O)CCC3` (stereo not given): the TGI with CAKI-1 renal, in the test with HCC-2998 colon, in the test with HCT-116 colon, in the test on M14 melanoma, in the test with MALME-3M melanoma and in the test on MCF7 breast was over 100 µM throughout. In addition, the TGI in the test with MDA-MB-231 breast, in the test on MDA-N, with MOLT-4 leukemia, in the test with NCI-H23 lung, in the test with NCI-H460 lung and in the test on NCI-H522 lung was over 100 µM each time. Further, the TGI in the test with OVCAR-3 ovarian, with OVCAR-5 ovarian, in the test with PC-3 prostate, with SF-539 CNS, in the test with SNB-19 CNS and with SR leukemia was over 100 µM in each case. Moreover, the TGI in the test with T-47D breast and with UACC-62 melanoma was over 100 µM each time.

On to `O=C(O)C1=C(C(=O)O)N(c2ccncc2)C(c2ccco2)=CC1c1ccccc1[N+](=O)[O-]` (stereo not given), for which the TGI with CAKI-1 renal came to 34.6 µM; with HCC-2998 colon it was 3.57 µM; in the test on HCT-116 colon, 3.4 µM; with M14 melanoma, 22.5 µM; in the test with MALME-3M melanoma, 22.3 µM; with MCF7 breast it was 10.1 µM. For the same molecule, the TGI in the test on MDA-MB-231 breast worked out at 30.7 µM; in the test on MDA-N, 20.7 µM; in the test with MOLT-4 leukemia, 14.5 µM; with NCI-H23 lung, 25.8 µM; in the test with NCI-H460 lung, 28.9 µM; in the test on NCI-H522 lung it was 9.59 µM. For the same molecule, the TGI in the test on OVCAR-3 ovarian came out at 23.5 µM; with OVCAR-5 ovarian, 33.8 µM; in the test with PC-3 prostate, 27.9 µM; with SF-539 CNS, 4.55 µM; with SNB-19 CNS it was 35.5 µM; with SR leukemia, 5.68 µM. The figures for the TGI in the test on T-47D breast and with UACC-62 melanoma were 20.1 µM and 32.1 µM, respectively.

For `CCOC(=O)CC1(O)CCCCC1(Sc1ccc(C)cc1)Sc1ccc(C)cc1` (stereo not given), the TGI in the test on CAKI-1 renal was over 100 µM; in the test with HCC-2998 colon, over 100 µM; with HCT-116 colon, over 100 µM; in the test on M14 melanoma, over 100 µM; in the test on MALME-3M melanoma, 91.8 µM; with MCF7 breast, over 100 µM. Further, the TGI is over 100 µM in the test with MDA-MB-231 breast; over 100 µM with MDA-N; over 100 µM with MOLT-4 leukemia; over 100 µM in the test with NCI-H23 lung; over 100 µM with NCI-H460 lung; 51 µM in the test on NCI-H522 lung. Further, the TGI with OVCAR-3 ovarian, in the test with OVCAR-5 ovarian, in the test on PC-3 prostate, in the test with SF-539 CNS, with SNB-19 CNS and in the test on SR leukemia was over 100 µM each time. Besides, the TGI with T-47D breast was 85.3 µM; in the test on UACC-62 melanoma, over 100 µM.
